According to US11078197B2, “5-membered and bicyclic heterocyclic amides as inhibitors of rock” (BRISTOL-MYERS SQUIBB COMPANY, priority 2017, dated 2021):

Target: ROCK2 (Homo sapiens (Human), UniProt O75116)
Test: ROCK2 assay (peptide phosphorylation, LABCHIP 3000 Reader)
Assay type: biochemical
Conditions: 5 μM ATP, 1.5 μM peptide substrate, dose-response
Experimental: After incubation, the reaction was terminated by the addition of EDTA and the phosphorylated and non-phosphorylated peptides separated using a LABCHIP®3000 Reader (Caliper Life Sciences). […] Compounds were tested in dose-response format, and the inhibition of kinase activity was calculated at each concentration of compound. […] Representative Examples were tested in the ROCK2 assay described above and found having ROCK2 inhibitory activity.

ROCK2, sequence (O75116 whole entry, species assumed): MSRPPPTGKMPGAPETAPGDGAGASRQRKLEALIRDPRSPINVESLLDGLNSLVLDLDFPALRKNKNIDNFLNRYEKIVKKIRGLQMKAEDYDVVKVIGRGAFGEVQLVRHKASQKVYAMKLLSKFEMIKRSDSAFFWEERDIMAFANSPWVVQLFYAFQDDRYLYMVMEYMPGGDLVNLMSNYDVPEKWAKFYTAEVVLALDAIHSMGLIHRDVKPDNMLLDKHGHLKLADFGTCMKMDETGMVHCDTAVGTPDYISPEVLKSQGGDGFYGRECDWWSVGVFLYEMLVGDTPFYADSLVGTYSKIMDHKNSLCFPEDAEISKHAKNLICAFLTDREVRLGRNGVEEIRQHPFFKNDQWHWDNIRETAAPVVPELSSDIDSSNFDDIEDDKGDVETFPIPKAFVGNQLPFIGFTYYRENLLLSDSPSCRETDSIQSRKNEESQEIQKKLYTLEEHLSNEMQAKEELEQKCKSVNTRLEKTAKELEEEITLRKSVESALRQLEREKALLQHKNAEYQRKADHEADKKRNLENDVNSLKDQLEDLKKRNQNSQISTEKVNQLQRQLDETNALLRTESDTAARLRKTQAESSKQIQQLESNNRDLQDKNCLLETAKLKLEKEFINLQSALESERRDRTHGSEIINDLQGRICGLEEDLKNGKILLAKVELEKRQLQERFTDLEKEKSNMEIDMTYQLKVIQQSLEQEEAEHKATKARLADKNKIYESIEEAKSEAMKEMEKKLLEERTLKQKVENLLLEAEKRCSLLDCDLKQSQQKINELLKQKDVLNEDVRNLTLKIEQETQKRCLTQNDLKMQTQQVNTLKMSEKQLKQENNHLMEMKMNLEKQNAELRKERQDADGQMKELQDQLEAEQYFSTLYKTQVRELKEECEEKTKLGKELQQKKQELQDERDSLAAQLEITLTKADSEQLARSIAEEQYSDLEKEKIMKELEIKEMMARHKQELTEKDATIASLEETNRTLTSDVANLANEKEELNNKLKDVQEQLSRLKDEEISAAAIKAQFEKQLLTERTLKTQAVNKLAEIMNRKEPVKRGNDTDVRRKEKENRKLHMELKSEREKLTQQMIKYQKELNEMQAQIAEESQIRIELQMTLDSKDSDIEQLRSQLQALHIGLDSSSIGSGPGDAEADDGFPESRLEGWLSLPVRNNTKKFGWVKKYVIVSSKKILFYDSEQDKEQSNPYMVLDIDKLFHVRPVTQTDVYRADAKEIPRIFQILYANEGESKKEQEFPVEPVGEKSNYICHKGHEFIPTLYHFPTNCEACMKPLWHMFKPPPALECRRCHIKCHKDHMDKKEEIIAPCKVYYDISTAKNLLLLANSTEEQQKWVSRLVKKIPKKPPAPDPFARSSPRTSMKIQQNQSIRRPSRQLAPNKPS

Row | IC50 | Compound
1 | 322 nM | COc1ccc(-n2ncc(C(=O)N[C@H]3C[C@]4(C3)C[C@H](Oc3nn(C5CC5)cc3C(N)=O)C4)c2C)cn1 (stereo partly drawn) [Example 50, 1-cyclopropyl-3-{[(aR)-6-[1-(6-methoxypyridin-3-yl)-5-methyl-1H-pyrazole-4-amido]spiro[3.3]heptan-2-yl]oxy}-1H-pyrazole-4-carboxamide]
2 | 14.1 nM | Cn1cc(C(N)=O)c(O[C@H]2C[C@@]3(C[C@H](NC(=O)c4cnn5c(C6CC6)c(OCC(C)(C)O)ccc45)C3)C2)n1 (stereo partly drawn) [Example 14, 3-({(aR)-6-[7-cyclopropyl-6-(2-hydroxy-2-methylpropoxy)pyrazolo [1,5-a]pyridine-3-amido]spiro[3.3]heptan-2-yl}oxy)-1-methyl-1H-pyrazole-4-carboxamide]
3 | 26.7 nM | NC(=O)c1cc2sccc2nc1OC1CC2(CC(NC(=O)c3cnn4ccccc34)C2)C1 (centres unmarked) [Example 75, 5-[(6-{pyrazolo[1,5-a]pyridine-3-amido}spiro[3.3]heptan-2-yl)oxy]thieno[3,2-b]pyridine-6-carboxamide]
4 | 20 nM | CC(C)(O)COc1ccc2c(C(=O)NC3CC4(C3)CC(Oc3nc5c(cc3C(N)=O)COCC5)C4)cnn2c1 (centres unmarked) [Example 82, N-[6-({3-carbamoyl-5H,7H,8H-pyrano[4,3-b]pyridin-2-yl}oxy)spiro[3.3]heptan-2-yl]-6-(2-hydroxy-2-methylpropoxy) pyrazolo[1,5-a]pyridine-3-carboxamide]
5 | 4.6 nM | Cc1c(C(=O)N[C@H]2C[C@]3(C2)C[C@H](Oc2nc4c(cnn4C)cc2C(N)=O)C3)cnn1-c1ccc(-c2cnn(CC(F)F)c2)cc1 (some centres unmarked) [Example 158, 1-{4-[1-(2,2-difluoroethyl)-1H-pyrazol-4-yl]phenyl}-5-methyl-N-[(4s)-6-({5-carbamoyl-1-methyl-1H-pyrazolo[3,4-b]pyridin-6-yl}oxy)spiro[3.3]heptan-2-yl]-1H-pyrazole-4-carboxamide]
6 | 12 nM | Cc1csc2cc(C(N)=O)c(O[C@H]3C[C@@]4(C[C@H](NC(=O)c5cnn6cc(OCC(C)(C)O)ccc56)C4)C3)nc12 (stereo partly drawn) [Example 97, 3-methyl-5-{[(aR)-6-[6-(2-hydroxy-2-methylpropoxy)pyrazolo[1,5-a]pyridine-3-amido]spiro[3.3]heptan-2-yl]oxy}thieno[3,2-b]pyridine-6-carboxamide]
7 | 316 nM | COc1ccc2c(C(N)=O)c(O[C@H]3C[C@@]4(C[C@H](NC(=O)c5cnn6cc(OCC(F)F)ccc56)C4)C3)nn2c1 (some centres unmarked) [Example 125, 6-methoxy-2-{[(4s)-6-[6-(2,2-difluoroethoxy)pyrazolo[1,5-a]pyridine-3-amido]spiro[3.3]heptan-2-yl]oxy}pyrazolo[1,5-a]pyridine-3-carboxamide]
8 | 18.9 nM | Cc1nc(O[C@H]2C[C@@]3(C[C@H](NC(=O)c4cnn5cc(OCC(C)(C)O)ccc45)C3)C2)c(C(N)=O)s1 (stereo partly drawn) [Example 21, 4-({(aR)-6-[6-(2-hydroxy-2-methylpropoxy)pyrazolo [1,5-a]pyridine-3-amido]spiro[3.3]heptan-2-yl}oxy)-2-methyl-1,3-thiazole-5-carboxamide]
9 | 39 nM | Cc1sc2cc(C(N)=O)c(O[C@H]3C[C@@]4(C[C@H](NC(=O)c5cnn6cc(OCC(C)(C)O)ccc56)C4)C3)nc2c1C (stereo partly drawn) [Example 94, 2,3-dimethyl-5-{[(aR)-6-[6-(2-hydroxy-2-methylpropoxy)pyrazolo[1,5-a]pyridine-3-amido]spiro[3.3]heptan-2-yl]oxy}thieno[3,2-b]pyridine-6-carboxamide]
10 | 18.5 nM | CC(C)(O)COc1ccc2c(C(=O)N[C@H]3C[C@]4(C3)C[C@H](Oc3nc(-c5ccccc5)sc3C(N)=O)C4)cnn2c1 (stereo partly drawn) [Example 17, 4-({(aR)-6-[6-(2-hydroxy-2-methylpropoxy)pyrazolo [1,5-a]pyridine-3-amido]spiro[3.3]heptan-2-yl}oxy)-2-phenyl-1,3-thiazole-5-carboxamide]
11 | 347 nM | Cn1cc(C(N)=O)c(O[C@H]2C[C@@]3(C[C@H](NC(=O)c4cnn5cc(N6CC7(COC7)C6)ccc45)C3)C2)n1 (stereo partly drawn) [Example 33, 1-methyl-3-{[(aR)-6-(6-{2-oxa-6-azaspiro[3.3]heptan-6-yl}pyrazolo[1,5-a]pyridine-3-amido)spiro[3.3]heptan-2-yl]oxy}-1H-pyrazole-4-carboxamide]
12 | 77.7 nM | COCCn1cc(C(N)=O)c(O[C@H]2C[C@@]3(C[C@H](NC(=O)c4cnn5c(C6CC6)c(OCC(C)(C)O)ccc45)C3)C2)n1 (stereo partly drawn) [Example 23, 3-({(aR)-6-[7-cyclopropyl-6-(2-hydroxy-2-methylpropoxy)pyrazolo [1,5-a]pyridine-3-amido]spiro[3.3]heptan-2-yl}oxy)-1-(2-methoxyethyl)-1H-pyrazole-4-carboxamide]

Further lines, the compound ahead of its results:

Row | Compound | IC50
13 | CC(C)(O)COc1ccc2c(C(=O)N[C@H]3C[C@]4(C3)C[C@H](Oc3nn(CCN)cc3C(N)=O)C4)cnn2c1C1CC1 (stereo partly drawn) [Example 29, 1-(2-aminoethyl)-3-({(aR)-6-[7-cyclopropyl-6-(2-hydroxy-2-methylpropoxy)pyrazolo [1,5-a]pyridine-3-amido]spiro[3.3]heptan-2-yl}oxy)-1H-pyrazole-4-carboxamide] | 254 nM
14 | Cc1c(C(=O)N[C@H]2C[C@]3(C2)C[C@H](Oc2nc4c(cnn4C)cc2C(N)=O)C3)cnn1-c1ccc(-c2cnn(C)c2)cc1 (some centres unmarked) [Example 153, 5-methyl-1-[4-(1-methyl-1H-pyrazol-4-yl)phenyl]-N-[(4s)-6-({5-carbamoyl-1-methyl-1H-pyrazolo[3,4-b]pyridin-6-yl}oxy)spiro[3.3]heptan-2-yl]-1H-pyrazole-4-carboxamide] | 0.8 nM
15 | CC(C)CC1NC(=O)N([C@H]2C[C@@]3(C[C@H](Oc4nc(C5CC5)sc4C(N)=O)C3)C2)C1=O (some centres unmarked) [Example 10] | 27.4 nM
16 | CC(CC1NC(=O)N([C@H]2C[C@@]3(C[C@H](Oc4nn5ccccc5c4C(N)=O)C3)C2)C1=O)C(F)(F)F (some centres unmarked) [Example 140, 2-{[(4s)-6-[2,5-dioxo-4-(3,3,3-trifluoro-2-methylpropyl)imidazolidin-1-yl]spiro[3.3]heptan-2-yl]oxy}pyrazolo[1,5-a]pyridine-3-carboxamide] | 62.1 nM
17 | N#Cc1cccc(C(=O)N[C@H]2C[C@]3(C2)C[C@H](Oc2nc4ccsc4cc2C(N)=O)C3)c1 (stereo partly drawn) [Example 83, 5-{[(aR)-6-(3-cyanobenzamido)spiro[3.3]heptan-2-yl]oxy}thieno[3,2-b]pyridine-6-carboxamide] | 9.7 nM
18 | COc1ccc2c(C(N)=O)c(O[C@H]3C[C@@]4(C[C@H](NC(=O)c5nn(C(F)F)c6cc(OCC(C)(C)O)ccc56)C4)C3)nn2c1 (some centres unmarked) [Example 124, 1-(difluoromethyl)-6-(2-hydroxy-2-methylpropoxy)-N-[(4s)-6-({3-carbamoyl-6-methoxypyrazolo[1,5-a]pyridin-2-yl}oxy)spiro[3.3]heptan-2-yl]-1H-indazole-3-carboxamide] | 90.4 nM
19 | CCC1NC(=O)N([C@H]2C[C@@]3(C[C@H](Oc4nc(C5CC5)sc4C(N)=O)C3)C2)C1=O (stereo partly drawn) [Example 108, 2-cyclopropyl-4-{[(aR)-6-(4-ethyl-2,5-dioxoimidazolidin-1-yl)spiro[3.3]heptan-2-yl]oxy}-1,3-thiazole-5-carboxamide] | 1870 nM
20 | Cn1cc(C(N)=O)c(OC2CC3(CC(NC(=O)c4cnn5cc(OCCC(F)(F)F)ccc45)C3)C2)n1 [Example 4, N-((aR)-6-((4-Carbamoyl-1-methyl-1H-pyrazol-3-yl)oxy)spiro[3.3]heptan-2-yl)-6-(3,3,3-trifluoropropoxy)pyrazolo[1,5-a]pyridine-3-carboxamide] | 20.1 nM
